The text below walks through data of patent US12685756B2, “Methods of treating disease with Terlipressin” (BIOVIE INC., priority 2022, dated 2026).

The conditions of series [1]: in vivo; cited from earlier work.
The conditions of series [2]: in vivo; cited from earlier work. This is another data set of the same source.
Series [3] in a line: ongoing clinical trial of terlipressin administered as a continuous infusion in patients with cirrhosis and refractory ascites (serum sodium, hyponatremia). As to conditions: human, in vivo. As to the method: The following clinical observations were made in an ongoing clinical trial evaluating the safety and efficacy of terlipressin, administered as a continuous infusion, in patients with cirrhosis and refractory ascites. In FIGS. 1-4, “D” stands for “Day” and the notation “Dn” where n is an integer refers to the number of days after the baseline sodium level was measured. The notation “D+N” where N is an integer refers to the number of days after administration of terlipressin was stopped.
Patient #1, a patient with cirrhosis due to NASH and recurrent ascites that was not responding to treatment with the diuretic furosemide initiated infusion with terlipressin (3 mg/day) on Day 1. Terlipressin dose (mg/day), furosemide daily dose, and serum sodium levels of the Patient #1 are recorded in FIG. 1. After 6 days of treatment with terlipressin at a dose of 3 mg/day the dose of terlipressin was escalated to 4 mg/day as per protocol. A modest reduction in serum sodium of 3 mmol/L from baseline was noted before the dose increase. After 7 days of treatment with 4 mg/day serum sodium decreased an additional 8 mmol/L so that there was a total reduction of 11 mmol/L in the 13 days of treatment versus baseline (128 vs 139 mmol/L). […] Terlipressin infusion was discontinued.
Patient #2, a person with alcoholic cirrhosis and recurrent ascites who could not be treated with diuretics began treatment with terlipressin at a dose of 3 mg/day. The daily terlipressin dose and serum sodium levels of the Patient #2 are recorded in FIG. 2.
Patient #3, a person with cirrhosis due to NASH, with uncontrolled ascites despite ongoing treatment with the diuretics furosemide and spironolactone, initiated treatment with terlipressin administered as a continuous intravenous infusion at a dose of 3 mg/day. Terlipressin dose (mg/day), furosemide daily dose, and serum sodium levels of the Patient #3 are recorded in FIG. 3. […] Though the patient was asymptomatic the patient was directed to go to the Emergency room. […]

Details of series [4]: species or system human. The settings on record: in vivo. The protocol: Patient #4, who was one of 6 patients treated with terlipressin administered as a continuous infusion in our previous Phase 2a trial, was a person with recurrent ascites due to cirrhosis despite taking the […] spironolactone and furosemide. Terlipressin, furosemide, and serum sodium levels of […] are recorded in FIG. 4. According to protocol this patient began treatment with terlipressin at an initial dose of 2 mg/day who was escalated to a dose of 3 mg/day on Day 5. Serum sodium gradually declined over time reaching a reduction of 10 mmol/L on Day 5 at which point the patient stopped taking furosemide. Serum sodium continued to decline and spironolactone was stopped for two days which had no impact on declining serum sodium. Terlipressin infusion was stopped after 9 days of treatment and serum sodium rebounded after 2 days of drug cessation.
Additionally, one patient in our previously conducted Phase 2a trial (n=6) similarly developed asymptomatic hyponatremia in response to terlipressin administration.
In searching for a commonality between the three patients that experienced hyponatremia in response to terlipressin treatment in the current trial it was noted that the three patients were taking daily gabapentin (Patient #1 and 2) or pregabalin (Patient #3) though none of the other 7 patients randomized to treatment with terlipressin were taking either of these medications. Moreover, the one patient out of six who developed hyponatremia in response to terlipressin in the previous Phase 2a trial was also taking gabapentin.

The conditions of series [5]: bolus IV administration, cited from earlier work.
For series [6] the following is noted: administered acutely as a single bolus dose; cited from earlier work.
For series [7] the following is noted: administered over 14 days with daily albumin to HRS patients; cited from earlier work.
The conditions of series [8]: continuous infusion, outpatient setting, without daily albumin; cited from earlier work.
The conditions of series [9]: human, in vivo; cited from earlier work.
For series [10] the following is noted: human, in vivo; cited from earlier work. This is another data set of the same source.
The conditions of series [11]: in vivo; cited from earlier work. This is another data set of the same source.

Positions of bridges follow the written chain, without caps; N, C: chain ends. Residues, ends and D or L forms follow the SMILES beside them.

As for `NC(=O)CC[C@@H]1NC(=O)[C@H](Cc2ccccc2)NC(=O)[C@H](Cc2ccc(O)cc2)NC(=O)CCSSC[C@@H](C(=O)N2CCC[C@H]2C(=O)N[C@H](CCCN=C(N)N)C(=O)NCC(N)=O)NC(=O)[C@H](CC(N)=O)NC1=O` [desmopressin], in [1], the “incidence of desmopressin-induced hyponatremia” value is 7.6%.

In the case of `NCC1(CC(=O)O)CCCCC1` [gabapentin], the “risk of hyponatremia compared with other anti-epilepsy drugs” value in series [2] is reported as “lowest risk of hyponatremia among anti-epilepsy drugs”.

Regarding `NCCCC[C@H](NC(=O)[C@@H]1CCCN1C(=O)[C@@H]1CSSC[C@H](NC(=O)CNC(=O)CNC(=O)CN)C(=O)N[C@@H](Cc2ccc(O)cc2)C(=O)N[C@@H](Cc2ccccc2)C(=O)N[C@@H](CCC(N)=O)C(=O)N[C@@H](CC(N)=O)C(=O)N1)C(=O)NCC(N)=O` [terlipressin] (H-GGGCYFQNCPKG-NH2; disulfide 4-9), in series [3], the “additional decrease in serum sodium” value was 4 mmol/L, the “relatedness of hyponatremia to treatment” value is given as “considered related to terlipressin” and the “total reduction in serum sodium versus baseline” value is listed as 11 mmol/L. In addition, in series [4], the “patients who developed asymptomatic hyponatremia in response to terlipressin” value is reported as “one patient”, the “relatedness of severe hyponatremia to treatment” value is reported as “considered related to terlipressin treatment”, the “serum sodium after drug cessation” value is “rebounded” and the “symptoms of severe hyponatremia” value is recorded as “asymptomatic”. Also, the “hours in which V2 mediated antidiuretic effects can predominate” value in [5] (between bolus doses) was 4 to 6 h. Also, the “duration of V1-mediated pharmacodynamic effects” value in series [5] is 3 to 4 h. Besides, the antidiuretic effect entry in series [6] was “mediates antidiuretic effects”. In addition, in series [7], the “effect on low serum sodium” value was “can even correct low serum sodium”. In series [8], the “effect on renal function and ascites” value is “improve renal function and reduce ascites”; the “effect on serum sodium concentrations” value is recorded as “improve serum sodium concentrations”. In series [9], the “patients who experienced hyponatremia defined as ≥5 mmol decrease in serum sodium” value is listed as 67%. In series [10], the “patients with severe hyponatremia (reduction in serum sodium of >10 mmol/L)” value is “more than 12%” and the “patients with severe hyponatremia who experience neurological manifestations” value is given as “at least 30%”. In addition, in series [11], the incidence of hyponatremia is below 5%.
